Reference: US20250002450A1, “CATIONIC STEROID COMPOUNDS, METHOD OF OBTAINING THEREOF, FORMULATIONS COMPRISING THEREOF AND THEIR USES” (UNIVERSIDADE DO PORTO, priority 2021, published 2025)

Columns and labels:
[1] = tested on: C. albicans ATCC 10231; assay: Propidium iodide influx assay (SYTO 9/PI); type: cell-based, Candida albicans; conditions: 5 min
Procedure: Influx of PI in C. albicans ATCC 10231 treated with compound 1 was evaluated using a commercial kit, which includes fluorescent nucleic acid stains SYTO™ 9 and PI, and measurements were conducted in a fluorescence microplate reader. […] The ability of PI to penetrate cells with damaged membranes makes it suitable for studying the effect of drugs on cell membranes.
In order to assess membrane integrity by the PI influx assay, a commercial kit was used (LIVE/DEAD® BacLight™ Bacterial Viability Kit, for microscopy & quantitative assays, Invitrogen by Thermo Fisher Scientific, Waltham, MA, USA), which includes fluorescent nucleic acid stains SYTO® 9 and PI. Briefly, C. albicans ATCC 10231 colonies from overnight cultures in SDA were suspended in sterile saline and adjusted to 0.5 McFarland. This suspension was then diluted in RPMI (1:50 followed by 1:20) to achieve a final concentration of 0.5-2.5×10^3 CFU/mL and the tubes were incubated overnight at 36° C. in a water bath with shaking. The following day, the cell suspensions were centrifuged at 3500 rpm for 15 min, the supernatant was removed, and the cells were carefully resuspended in 2 mL of 0.85% NaCl (VWR International, Radnor, PA, USA) prepared in ultrapure water. An aliquot of this suspension was then added to each tube of 0.85% NaCl alone (control) or 0.85% NaCl plus an appropriate amount of test compound, in a 1:10 proportion. […] Fluorescence intensity of the stained yeast suspensions was obtained in a microplate reader (Synergy HT, BioTek Instruments) by two consecutive measurements: with excitation wavelength 485 nm and emission wavelength 528 nm (SYTO® 9) and with excitation wavelength 485 nm and emission wavelength 590 nm (PI). Data were analyzed by subtracting background fluorescence from each sample, dividing fluorescence intensity of SYTO® 9 by fluorescence intensity of PI, and are presented as a percentage of control. […]

[2] = tested on: E. coli ATCC 25922; assay: Time-kill kinetics; type: cell-based, Escherichia coli
Procedure: The present disclosure relates to antibacterial mechanism of action of the compound 1 herein disclosed. In an embodiment, the evaluation of time-kill kinetics was performed as follows. Time-kill kinetics of compound 1 were evaluated for E. coli ATCC 25922, allowing the confirmation of its bactericidal effect. This is usually determined when ≥99.9% killing of the initial inoculum occurs and is determined by a 3-log10-unit decrease in CFU/mL.
The effect of compound 1 concentrations ranging between 64 and 8 μg/mL was evaluated. The bacterial inoculum was prepared by suspending colonies from overnight cultures (grown in MHA) in CAMHB, and an aliquot of this suspension was added to each tube of CAMHB alone (control) or CAMHB plus an appropriate amount of compound 1, to give an inoculum of approximately 5×10^5 CFU/mL, in a final volume of 10 mL. Tubes were incubated at 37 degrees C. in a water bath with shaking. At predetermined time points (30 min, 1, 1.5, 2, 3, 4, 6, 8, 12, and 24 h), 100 μL aliquots were aseptically removed from each tube, after vortexing, serially diluted in buffered peptone water (Biokar Diagnostics, Allone, Beauvais, France), if necessary, and spread on MHA. Colony counts were determined following overnight incubation at 37 degrees C. and log10 CFU/mL was plotted against time. Three independent experiments were performed.

[3] = tested on: S. aureus 66/1 (MRSA); assay: Kirby-Bauer disk diffusion; type: cell-based, Staphylococcus aureus; conditions: 15 μg per disk
Procedure: An initial screening of the antibacterial activity of the compounds was performed by the Kirby-Bauer disk diffusion method, as recommended by the Clinical and Laboratory Standards Institute (CLSI). Briefly, sterile 6 mm blank paper disks (Oxoid, Basingstoke, England) impregnated with 15 μg of each compound were placed on inoculated MH agar plates. A blank disk with dimethylsulfoxide (DMSO) was used as a negative control. MH inoculated plates were incubated for 18-20 h at 37 degrees C. At the end of incubation, the inhibition halos where measured. The MIC was used to determine the antibacterial activity of each compound, in accordance with the recommendations of the CLSI. Two-fold serial dilutions of the compounds were prepared in Mueller-Hinton Broth 2 (MHB2—Sigma-Aldrich, St. Louis, MO, USA) within the concentration range of 0.062-64 μg/mL. CTX ranging between 0.031-16 μg/mL was used as a control. Sterility and growth controls were included in each assay. Purity checks and colony counts of the inoculum suspensions were also performed in order to ensure that the final inoculum density closely approximates the intended number (5×10^5 CFU/mL). The MIC was determined as the lowest concentration of compound that inhibited growth of the bacteria. The MBC was assessed by spreading 10 μL of culture collected from wells showing no visible growth on MH agar plates. […]

[4] = tested on: Saprolegnia parasitica CBS 223.65; assay: MIC/MLC broth microdilution in GY broth; type: cell-based
Procedure: The antifungal activity of compound 1 was evaluated for a wide range of fungal species, covering yeasts and filamentous fungi, including dermatophytes. […] This antimicrobial effect was fungicidal, with minimal lethal concentrations (MLC) being equal to, or one or two-fold higher than the respective MIC. Twenty-three fungal strains were used in this study, including reference strains and clinical isolates of yeasts and filamentous fungi. Yeast strains included reference strains (ATCC—American Type Culture Collection and CECT—Colección Española de Cultivos Tipo) and clinical isolates: C. albicans ATCC 10231, Candida krusei ATCC 6258, C. albicans H37, C. albicans FF172, C. albicans FF176, C. albicans DSY294, C. albicans DSY296, C. glabrata DSY562, C. glabrata DSY565 and Cryptococcus neoformans CECT 1078. […]
Each well was then inoculated with approximately 1 mm^2 of mycelium. […] After 5-7 days of incubation at 24° C., MIC was recorded as the lowest concentration that prevented obvious mycelial growth in comparison to the compound-free controls. […]

Which “influx of PI” value ([1]; 32 μg/mL (½×MIC)) does the source give for `C[C@H](CCC(=O)NCCN)[C@H]1CC[C@H]2[C@@H]3CC[C@@H]4C[C@H](O)CC[C@]4(C)[C@H]3C[C@H](O)[C@]12C` [Compound 1, (R)—N-(2-aminoethyl)-4-((3R,5R,8R,9S,10S,12S,13R,14S,17R)-3,12-dihydroxy-10,13-dimethylhexadecahydro-1H-cyclopenta[a]phenanthren-17-yl) pentanamida] here?
The value was “no evidence of influx of PI”.

And the “reduction of SYTO 9/PI ratio vs untreated control” value ([1]; 128 and 64 μg/mL (2×MIC and MIC))?
The value was “significant”.

And the “exposure time to bactericidal activity (≥99.9% killing)” value ([2]; 64 μg/mL (2×MIC))?
Its value is “approximately 1 h”.

What about the “decrease in CFU/mL” value ([2]; 64 μg/mL, after 30 min of exposure) of the same compound?
The value was 2 log10-unit.

And the “type of killing (in words)” value ([2]; 64-8 μg/mL)?
The value was “concentration-dependent killing”.

What about the Disk diffusion [3] of the same compound?
Its Disk diffusion is 11 mm.

What about the MIC [4] of the same compound?
Its MIC is 32 to 64 µg/mL.

What about the MLC [4] of the same compound?
The MLC was 32 to 64 µg/mL.
